{"source": "patent US20070270461A1", "about": "“Fungicide” (Valent BioSciences Corporation, priority 2006, published 2007)", "key": {"[1]": {"tested_on": "Botrytis cinerea", "assay": "Detached bean leaf bioassay, fungal control", "type": "in vivo", "details": "200 ppm on detached bean leaf; 100 minus percent necrotic area, three days after inoculation", "method": "Compound solution: Compound solutions were prepared by diluting compound stock solutions (1.0% w/v compound in DMSO) to 200 ppm with 0.01% w/v Triton X-100. Spore solution preparation: Botrytis cinerea spores were taken from 6-week-old cultures grown at 22 C on full strength potato dextrous agar (PDA) plates and harvested in 1:16 frozen orange juice concentrate:water. Botrytis cinerea spore solutions were prepared by diluting spore cultures to 5×10^4 spores/mL with 1:16 frozen orange juice concentrate:water. Plant material: Middle trifoliate leaves of greenhouse grown Phaseolus vulgaris (Bush bean cv. Blue Lake 274) were excised and placed on a plastic grid above a tray containing moist towels. Treatment method: One half of the adaxial surface of the leaf was treated with the compound solution (100 :L) using a 3 cm Bacti Cell Spreader. A blank consisted of 0.01% w/v Triton X-100. A commercial fungicide control (200 ppm diluted with water) consisted of Scala. […] Fungal control rating: Three days after inoculation with Botrytis, the percent necrotic area under the inoculation droplet was determined. Since the areas under the blank (0.01% w/v Triton X-100) were 100% infected, fungal control was expressed as 100 minus the percent necrotic area, and thus 0% infected is 100% fungal control (n=3 leaves/compound, 5 inoculation droplets/leaf, Table 2)."}, "[2]": {"tested_on": "Phaseolus vulgaris (Bush bean cv. Blue Lake 274) leaves", "assay": "Detached bean leaf bioassay, phytotoxicity rating", "type": "in vivo", "details": "200 ppm on detached bean leaf; rated no, slight, moderate or excessive phytotoxicity", "method": "Compound solution: Compound solutions were prepared by diluting compound stock solutions (1.0% w/v compound in DMSO) to 200 ppm with 0.01% w/v Triton X-100. Plant material: Middle trifoliate leaves of greenhouse grown Phaseolus vulgaris (Bush bean cv. Blue Lake 274) were excised and placed on a plastic grid above a tray containing moist towels. Treatment method: One half of the adaxial surface of the leaf was treated with the compound solution (100 :L) using a 3 cm Bacti Cell Spreader. A blank consisted of 0.01% w/v Triton X-100. A commercial fungicide control (200 ppm diluted with water) consisted of Scala. After the solutions dried, the trays containing the leaves were covered and held one day in a growth chamber (22 C). The adaxial surfaces of the leaves were then inoculated with 5-60 :L droplets of Botrytis cinerea spore solution. Phytotoxicity ratings: Phytotoxicity was rated as 0=no phytotoxicity, 1=slight phytotoxicity, 2=moderate phytotoxicity, or 3=excessive phytotoxicity (Table 2)."}, "[3]": {"tested_on": "Sclerotinia sclerotiorum", "assay": "Contact evaluation (microtiter plate)", "type": "cell-based", "details": "Sclerotinia sclerotionum", "method": "(§1) Compound solution: Contact evaluations were conducted to determine the anti-fungal activity of each compound against Botrytis cinerea, Sclerotinia sclerotiorum, Pythium aphanidermatum, Rhizoctonia solani, Cercospora arachidicola, Mycosphaerella fijiensis, and Monilinia laxa. Five milligrams of each compound were dissolved in 0.5 milliliter of DMSO for a compound stock solution of 1.0% w/v. Compound stock solutions were serial diluted with DMSO to 20, 10, and 2 ppm final well concentration.\n(§2) Fungi preparation: Botrytis cinerea spores were taken from 6-week-old cultures grown at 22 C on full strength potato dextrous agar (PDA) plates. Sclerotinia sclerotiorum, Pythium aphanidermatum, Rhizoctonia solani, and Monilinia laxa mycelia were taken from 4- to 10-day-old shake flask cultures grown at room temperature on full strength potato dextrous broth (PDB). Cercospora arachidicola mycelia were taken from 10- to 14-day-old shake flask cultures grown at room temperature on a full strength PDB amended with peanut oil. Mycosphaerella fijiensis mycelia were taken from 10- to 14-day-old shake flask cultures grown at room temperature on V8 juice broth. Sclerotinia sclerotiorum, Pythium aphanidermatum, Rhizoctonia solani, Cercospora arachidicola, and Mycosphaerella fijiensis mycelia (0.4 g mycelia) were blended for 45 seconds in 20 mL sterile de-ionized water. Monilinia laxa mycelia (1 g mycelia) was blended for 45 seconds in 30 mL of sterile de-ionized water. Botrytis cinerea spores were diluted with quarter strength PDB to 1×10^5 spores/mL final well concentration. All mycelia were diluted in water (1:5 mycelia:water) before distributing into the wells.\n(§3) Microtiter plate preparation: Compound solution (10 :L), quarter strength PDB (900 :L) and fungi preparation (100 :L) were sequentially distributed into 48-well microtiter plates (n=3 replications/compound/rate). A blank consisted of quarter strength PDB and fungi preparation. Commercial fungicide controls (100 ppm diluted with water) consisted of Scala for Botrytis cinerea, Dithane F-45 for Mycosphaerella fijiensis, and Benlate for Sclerotinia sclerotiorum, Pythium aphanidermatum, Rhizoctonia solani, Cercospora arachidicola, and Monilinia laxa. Plates were shaken in a circular rotator at room temperature for 20 minutes, then incubated at 25 C for 24 to 72 hours, depending on the pathogen.\n(§4) Fungal control ratings: Fungal growth in wells containing the compounds were compared to the positive control and fungal inhibition was rated as full, partial, or none. Final readings were the average of the three wells (Table 1)."}, "[4]": {"tested_on": "Pythium aphanidermatum", "assay": "Contact evaluation (microtiter plate)", "type": "cell-based", "method": "as §1, §2, §3, §4"}, "[5]": {"tested_on": "Mycosphaerella fijiensis", "assay": "Contact evaluation (microtiter plate)", "type": "cell-based", "method": "as §1, §2, §3, §4"}, "[6]": {"tested_on": "Cercospora arachidicola", "assay": "Contact evaluation (microtiter plate)", "type": "cell-based", "method": "as §1, §2, §3, §4"}, "[7]": {"tested_on": "Monilinia laxa", "assay": "Contact evaluation (microtiter plate)", "type": "cell-based", "method": "as §1, §2, §3, §4"}, "[8]": {"tested_on": "Botrytis cinerea", "assay": "Contact evaluation (microtiter plate)", "type": "cell-based", "method": "as §1, §2, §3, §4"}, "[9]": {"tested_on": "Rhizoctonia solani", "assay": "Contact evaluation (microtiter plate)", "type": "cell-based", "details": "Rhizoctinia solani", "method": "as §1, §2, §3, §4"}}}
{"smiles": "OCCOc1c(Br)cc(Br)c2cccnc12", "note": "[Example 1, 5,7-dibromo-8-(2-hydroxyethoxy) quinoline]", "values": [{"measurement": "Botrytis cinerea control (200 ppm)", "setting": "[1]", "value": 100, "unit": "%"}, {"measurement": "melting point", "value": "128 to 131", "unit": "°C"}, {"measurement": "Phytotoxity (200 ppm)", "setting": "[2]", "value": "Slight"}, {"measurement": "Control of fungi (full, partial, none)", "setting": "[3]; fungicide rate 2 ppm", "value": "Full"}, {"measurement": "Control of fungi (full, partial, none)", "setting": "[3]; fungicide rate 10 ppm", "value": "Full"}, {"measurement": "Control of fungi (full, partial, none)", "setting": "[3]; fungicide rate 20 ppm", "value": "Full"}, {"measurement": "Control of fungi (full, partial, none)", "setting": "[4]; fungicide rate 2 ppm", "value": "Full"}, {"measurement": "Control of fungi (full, partial, none)", "setting": "[4]; fungicide rate 10 ppm", "value": "Full"}, {"measurement": "Control of fungi (full, partial, none)", "setting": "[4]; fungicide rate 20 ppm", "value": "Full"}, {"measurement": "Control of fungi (full, partial, none)", "setting": "[5]; fungicide rate 2 ppm", "value": "Full"}, {"measurement": "Control of fungi (full, partial, none)", "setting": "[5]; fungicide rate 10 ppm", "value": "Full"}, {"measurement": "Control of fungi (full, partial, none)", "setting": "[5]; fungicide rate 20 ppm", "value": "Full"}, {"measurement": "Control of fungi (full, partial, none)", "setting": "[6]; fungicide rate 2 ppm", "value": "None"}, {"measurement": "Control of fungi (full, partial, none)", "setting": "[6]; fungicide rate 10 ppm", "value": "Full"}, {"measurement": "Control of fungi (full, partial, none)", "setting": "[6]; fungicide rate 20 ppm", "value": "Full"}, {"measurement": "Control of fungi (full, partial, none)", "setting": "[7]; fungicide rate 2 ppm", "value": "Full"}, {"measurement": "Control of fungi (full, partial, none)", "setting": "[7]; fungicide rate 10 ppm", "value": "Full"}, {"measurement": "Control of fungi (full, partial, none)", "setting": "[7]; fungicide rate 20 ppm", "value": "Full"}, {"measurement": "Control of fungi (full, partial, none)", "setting": "[8]; fungicide rate 2 ppm", "value": "Partial"}, {"measurement": "Control of fungi (full, partial, none)", "setting": "[8]; fungicide rate 10 ppm", "value": "Full"}, {"measurement": "Control of fungi (full, partial, none)", "setting": "[8]; fungicide rate 20 ppm", "value": "Full"}, {"measurement": "Control of fungi (full, partial, none)", "setting": "[9]; fungicide rate 2 ppm", "value": "Full"}, {"measurement": "Control of fungi (full, partial, none)", "setting": "[9]; fungicide rate 10 ppm", "value": "Full"}, {"measurement": "Control of fungi (full, partial, none)", "setting": "[9]; fungicide rate 20 ppm", "value": "Full"}]}
